According to patent US10555936B2, “Chemotherapeutic compositions and methods for treating human gliomas” (The Methodist Hospital, priority 2011, dated 2020):

Experiments:
hMAO-A = target: T1, hMAO-A (Homo sapiens, UniProt P21397); details: Fierro and co-workers; cited from earlier work
T1 sequence (P21397 1-527): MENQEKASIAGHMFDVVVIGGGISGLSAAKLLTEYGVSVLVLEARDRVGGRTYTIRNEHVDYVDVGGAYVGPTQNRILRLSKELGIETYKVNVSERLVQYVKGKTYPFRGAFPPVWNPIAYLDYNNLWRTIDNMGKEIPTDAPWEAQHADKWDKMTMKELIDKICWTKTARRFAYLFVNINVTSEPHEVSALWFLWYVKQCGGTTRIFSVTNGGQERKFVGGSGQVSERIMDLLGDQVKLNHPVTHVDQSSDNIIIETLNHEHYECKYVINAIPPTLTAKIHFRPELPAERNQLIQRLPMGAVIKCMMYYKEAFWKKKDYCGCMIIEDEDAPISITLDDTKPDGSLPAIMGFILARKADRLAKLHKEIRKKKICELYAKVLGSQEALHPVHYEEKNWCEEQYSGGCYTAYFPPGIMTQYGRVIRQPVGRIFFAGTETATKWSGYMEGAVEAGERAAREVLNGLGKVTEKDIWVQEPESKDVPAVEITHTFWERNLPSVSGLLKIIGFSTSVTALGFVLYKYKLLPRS

MAO-B = details: previously-published work; cited from earlier work
BT-111 cells = type: cell-based, human
BT-111 [1] = assay: Total cell protein mass, BCA/SDS method; type: cell-based, human; details: BT-111, with 2 μM selegiline, 24 hr
BT-115 [2] = assay: Cell death, Hoechst viability stain; type: cell-based, human; details: BT-115, high concentrations, 2 μM selegiline, 24 hrs
BT-111 [3] = assay: Cell death, Hoechst viability stain; type: cell-based, human; details: BT-111, high concentrations, 2 μM selegiline, 24 hrs
BT-115 [4] = assay: Total cell protein mass, BCA/SDS method; type: cell-based, human; details: BT-115, with 2 μM selegiline, 24 hr

CSc1ccc(CC(C)N)cc1 (centres unmarked) [MTA]
times better at inhibiting hMAO-A than hMAO-B (hMAO-A): > 1000 times

CN1CC=C(C2CCCCC2)CC1 [4-cyclohexyl-1-methyl-1,2,3,6-tetrahydropyridine]
MAO-B substrate quality (MAO-B): excellent MAO-B substrates

1-methyl-4-(3-methylfuran-yl)-1,2,3,6-tetrahydropyridine
MAO-B substrate quality (MAO-B): excellent MAO-B substrates

C#CCN(C)[C@H](C)Cc1ccccc1 [Selegiline]
effect on mitochondrial membrane potential (BT-111 cells): no effect

CCc1c2c(nc3ccc(OCCCN)cc13)-c1cc3c(c(=O)n1C2)COC(=O)[C@]3(O)CC [APE-SN38, 7-ethyl-10-(3-aminprop)-oxy-camptothecine]
protection by selegiline (BT-111 [1]): almost complete protection | cell death on co-incubation with selegiline (BT-115 [2]): could be arrested | cell death on co-incubation with selegiline (BT-111 [3]): could be arrested | protection by selegiline (BT-115 [4]): almost complete protection
